Legend:
Assay type in all cases: cell-based, human
ABCA1 = test: Increase of ABCA1 in THP-1 cell (membrane fraction, SDS-PAGE and immunoblotting); conditions: PMA-differentiated THP-1 macrophages, 24 h culture with compound; relative to cells treated with probucol spiroquinone (=100)
Description: THP-1 cells (human leukemia cell; manufactured by American Type Culture Collection) were cultured for 24 hours in 10% FBS-RPMI1640 culture medium (manufactured by Sigma) in the presence of PMA (phorbol myristate acetate; 3.2×10^−7 M; manufactured by Wako Pure Chemical Industries, Ltd.) to obtain differentiated macrophages. The resulting cells were washed with RPMI1640 (manufactured by Sigma) and then added to RPMI1640 culture medium (manufactured by Sigma) with BSA (manufactured by Sigma) having a concentration of 0.2%. The spiroquinone derivatives obtained in Examples 1, 6 and 10 was independently added to the culture medium. Each sample was cultured for 24 hours in the presence or absence of apoAI, and then the ABCA1 expression in the cells was assayed in accordance with the following method. Incidentally, the spiroquinone derivative was dissolved in 2-butabol, and the solution was added to the culture medium so that the final concentration of the spiroquinone derivative was 0.5%.
The cells were washed with PBS (phosphate buffered saline; manufactured by Sigma). The washed cells were collected in 0.5 mM Tris-HCl (pH 8.5) containing a protease inhibitor (manufactured by Sigma), stirred, and allowed to stand on ice for 15 minutes. The resulting cell suspension was centrifuged at 470×g for 5 minutes to precipitate nuclear fractions. Thereafter, the supernatant was centrifuged at 316,000×g for 30 minutes to precipitate membrane fractions. The membrane fractions (15 μg protein) were used to conduct SDS-PAGE and Immunoblotting. The obtained band of the ABCA1 protein was converted into digital data by using an image analysis software (manufactured by […], Photoshop). The relative ratio (%) of the ABCA1 expression level of the cells treated with the spiroquinone derivative to that of the cells treated with probucol spiroquinone was calculated to evaluate the ABCA1 expression activity of the test compounds.

ABCA1 mRNA = test: mRNA expression of intracellular ABCA1 (Real Time PCR); conditions: for mRNA Expression level of ABCA1 (relative ratio %): THP-1 macrophages, standardized to GAPDH mRNA, relative to untreated cells (=100)
Description: The cells washed with PBS in Test Example 1 were used. From the cells, RNA was extracted with ISOGEN (manufactured by Wako Pure Chemical Industries, Ltd.). By using a Super Script First-Strand Synthesis System for RT-PCR (manufactured by Invitrogen) cDNA was prepared, and the mRNA expression of ABCA1 was assayed by Real Time PCR using ABCA1 specific primer and Power SYBR Green PCR Master Mix (manufactured by Applied Biosystems).
Moreover, the mRNA expression of GAPDH as an internal control was also assayed simultaneously. The mRNA expression level of ABCA1 was standardized as a ratio (%) relative to the mRNA expression level of GAPDH. The mRNA expression level of ABCA1 in the cells treated with the test compound relative to that in untreated cells was calculated and evaluated.

THP-1 cells = test: Acceleration of HDL production reaction (apoA-I-dependent cholesterol release into culture medium); conditions: for HDL cholesterol release (relative ratio %): THP-1 macrophages, culture medium after 24 h culture, apoA-I-dependent, relative to cells treated with probucol spiroquinone (=100); for apoA-1-dependent HDL cholesterol release, increase as compared with probucol spiroquinone: THP-1 cells, fold versus cells treated with probucol spiroquinone
Description: The culture medium after 24-hour culture in the presence or absence of apoAI in Test Example 1 was used to examine cholesterol release into the culture medium by the apoA-1-dependent HDL-generating reaction.
Specifically, the culture medium was collected in a 1.5 ml tube and centrifuged at 316,000×g for 5 minutes, and the supernatant was transferred in a glass tube. To the supernatant was added a mixture of chloroform and methanol (volume ratio=2/1) (manufactured by Wako Pure Chemical Industries, Ltd.). The resulting mixture was stirred and further centrifuged at 1,300×g for 5 minutes. After the centrifugation, the resulting water layer was removed. Water was added to the remaining organic layer, and the mixture was stirred again and centrifuged at 1,300×g for 5 minutes. After the centrifugation, the resulting water layer was removed. The organic layer was evaporated to dryness, and cholesterol remaining in the glass tube was quantitatively determined according to an enzymatic method. The relative ratio (%) of the amount of cholesterol release as HDL from the cells treated with the spiroquinone derivative to that from the cells treated with probucol spiroquinone was calculated to evaluate the HDL cholesterol release from the cells treated with the test compounds.

SMILES	ABCA1 expression level (relative ratio %) (ABCA1)	mRNA Expression level of ABCA1 (relative ratio %) (ABCA1 mRNA)	HDL cholesterol release (relative ratio %) (THP-1 cells)	apoA-1-dependent HDL cholesterol release, increase as compared with probucol spiroquinone (THP-1 cells)	mRNA expression of ABCA1 in treated THP-1 cells (in words) (ABCA1 mRNA; THP-1 cells)
CC1(CCC(=O)O)SC2(C=C(C(C)(C)C)C(=O)C(C(C)(C)C)=C2)C2(C=C(C(C)(C)C)C(=O)C(C(C)(C)C)=C2)S1 [Example 1, 14-carboxyethyl-14-methyl-2,4,9,11-tetrakis(t-butyl)-13,15-dithiadispiro[5.0.5.3]pentadeca-1,4,8,11-tetraene-3,10-dione]	238%	–	–	–	–
CC1(C)SC2(C=C(C(C)(C)C)C(=O)C(C(C)(C)C)=C2)C2(C=C(C(C)(C)C)C(=O)C(C(C)(C)C)=C2)S1 [Probucol spiroquinone, reference compound]	100%	65%	100%	–	–
CC(C)(C)C1=CC2(C=C(C(C)(C)C)C1=O)SC1(CCCC1)SC21C=C(C(C)(C)C)C(=O)C(C(C)(C)C)=C1 [Example 10, 9,11,15,17-tetrakis(t-butyl)-6,19-dithiadispiro[4.1.5^7.0.5^13.1^5]nonadeca-8,11,14,17-tetraene-10,16-dione]	309%	–	128%	about 1.3 times	–
CCCC1(C)SC2(C=C(C(C)(C)C)C(=O)C(C(C)(C)C)=C2)C2(C=C(C(C)(C)C)C(=O)C(C(C)(C)C)=C2)S1 [Example 6, 14-methyl-2,4,9,11-tetrakis(t-butyl)-14-n-propyl-13,15-dithiadispiro[5.0.5.3]pentadeca-1,4,8,11-tetraene-3,10-dione]	176%	51%	134%	about 1.3 times	not found
